Measured values taken from US10463669B2, “Composition for treating or preventing liver cancer” (Seoul National University R&DB Foundation, priority 2016, dated 2019).
pIC50: −log10 of the molar value.

Key:
[1] = test system: Huh7 cells injected to subcutaneous tissues; assay: In vivo tumorigenicity analysis (xenograft of pre-treated cells); design: species or system KSN/Slc nude mouse
Experimental: The animal test was carried out according to the protocol which has been approved by Seoul National University Institutional Animal Care and Use Committee (Approval number: SNU-130225-6). The mouse was kept under usual conditions (i.e., semi-specific pathogen-free state), and allowed to have free access to food and water. For all xenografting studies, 5-week old KSN/Slc nude mouse was used. A mouse with bodyweight of 18 g to 20 g was used for the test. For the xenografting analysis, mock-treated 1×10^5 Huh7, 1×10^5 Huh7 treated only with 300 μmol/L H2O2, and 1×10^5 Huh7 treated with both of 25 μmol/L idelalisib and 300 μmol/L H2O2 were washed, harvested in PBS not containing Ca^2+ or Mg^2+, and subsequently injected in an amount of 0.2 mL to subcutaneous tissues. According to caliper measurement of two vertical diameters of a tumor (i.e., D1 as largest diameter and D2 as smallest diameter), the tumor product was monitored every week. The tumor volume was calculated by […].
Next, an examination was made to see whether or not idelalisib can have in vivo inhibition of tumor growth.

[2] = test system: telomere length in THLE-3 cells; assay: Telomere length (immunoFISH, Flow FISH, quantitative PCR); type: cell-based, human
Experimental: Flow FISH was carried out as described before (Rufer N, et al., Nat Biotechnol. 1998; 16: 743-7) with few modifications. The cells were washed twice with cold PBS (phosphate-buffered saline) solution containing 0.1% w/v bovine serum albumin (BSA). Subsequently, the cells were re-suspended in hybridization buffer (70% deionized formamide (Amresco, Solon, Ohio, USA), 20 mmol/L TrisHCl [pH 6.8], 1% BSA, and 1 nmol/L FAM-labeled telomere PNA (telomere peptide nucleic acid) probe ([…], Korea), or 1 nmol/L FAM-labeled centromere PNA probe ([…]). Volume of the hybridization buffer was adjusted to 100 μl per 10^5 cells. Next, each sample was cultured for 10 minutes in a water bath at 85° C. […] Total 15,000 to 20,000 nuclei were analyzed for the each separate culture. Telomere fluorescence intensity of the all nuclei at […] phase of the cell cycle was measured by using BD FACS Calibur flow cytometer (Becton Dickinson, Franklin Lakes, N.J., USA) in which CELLQUEST software is used. […] For quantification of the telomere fluorescence intensity, centromere fluorescence intensity, and 8-oxo-dG fluorescence intensity, the same exposure time was employed. The telomere fluorescence level and 8-oxo-dG fluorescence level of tumor tissues were calculated by division of the fluorescence level in non-tumor tissues corresponding to 5 random fields. […]

[3] = test system: TERT expression in THLE-3 cells; assay: TERT expression, quantitative real time-PCR and immunoblot; type: cell-based, human
Experimental: (§1) Medium was exchanged every day, and the aforementioned cells were cultured for 4 days in 300 μmol/L hydrogen peroxide (H2O2) (Sigma Aldrich; H1009). In several experiments, the cells were treated for 1 hour with 5 mmol/L N-acetylcysteine (NAC) (Sigma Aldrich; A7250), 25 μmol/L idelalisib (LC Laboratoties, Woburn, Mass., USA; I-7447), 25 μmol/L perifosine (LC Laboratoties, Woburn, Mass., USA; P-6522), or 30 μmol/L GSK3β inhibitor (GSK3β inhibitor XI) (Santa Cruz; sc-204770) (31) before adding H2O2. Furthermore, sterilized distilled water (pH 7.0) was used as a negative control (i.e., mock treatment).
(§2) PCR was carried out by using TOPrealm qPCR 2×PreMIX (SYBR Green with high ROX) (Enzynomics, Daejeon, Korea; RT501M) and ABI Prism 7300 thermal cycler (Applied Biosystems, Foster City, Calif., USA). […] To examine the primer specificity, a dissociation step was additionally included.
(§3) Total 2×10^5 cells were boiled for 5 minutes in 2×SDS sample buffer (100 mmol/L TrisHCl [pH 6.8], 4% SDS, 0.2% bromophenol blue, 20% glycerol, and 200 mmol/L β-mercaptoethanol), and then subjected to SDS-PAGE and Western blotting. To detect the TERT, the cells were cultured in 2×SDS sample buffer for 15 minutes at 55° C. TERT-specific (1:300, Rockland Immunochemicals, Gilbertsville, Pa., USA; 600-401-252), AKT-specific (1:1000, Cell Signaling Technology; #9272), phospho-AKT-specific (1:2000, Cell Signaling Technology; #4060), GAPDH-specific (1:2000, Santa Cruz Biotechnology; sc-47724), or β-actin-specific (1:2000, Sigma-Aldrich, St. Louis, Mo., USA; A5441) antibody was diluted in 5% skim milk or bovine serum albumin with TBS-Tween 20, cultured overnight at 4° C., washed, and cultured with HRP-conjugated secondary antibody (1:1000, Abcam; ab131368, or ab131366). By using FUSION-SOLO imager (Vilber Lourmat, Marne La Vallee, France), a chemical fluorescence image was obtained.

[4] = test system: TERT expression in HCC cell lines (Huh7 and Hep3B); assay: as above; type: cell-based, human
Experimental: as §1, §2, §3

THLE-3 cells = assay: Cell proliferation / cell viability, MTS assay; type: cell-based, human
Experimental: THLE-3 cell line (immortalized human liver endothelial cell line produced by infection with SV40 large T antigen) was obtained from ATCC (American Type Culture Collection). Cell line authentication by KCLB and ATCC was carried out by using DNA fingerprinting as a short tandem repeat analysis. All cell lines were tested for mycoplasma contamination. […] As it has been recommended by the ATCC manual, THLE-3 cells were cultured in BEGM (Lonza) medium complemented with 10% fetal bovine serum in a humidified 5% CO2 incubator at 37° C.
As it has been described before (10), the cell viability was measured by using Cell Titer 96 MTS (Promega). Cells were sewn in an amount of 500 to 1000 cells per well, and then treated for 96 hours at a pharmaceutical concentration as described in each graph. Each analysis was repeated 3 times at least. After plotting the data, IC50 values were obtained by using GraphPad software. By using Flexstation 3 multimode plate reader (Molecular Devices), optical density showing formazan production was measured at 490 nm.

[5] = THLE-3 cells exposed to 150 μmol/L H2O2

| SMILES | time without tumor formation ([1]; nude mouse injected with HCC cells treated with both 300 μmol/L H2O2 and 25 μmol/L idelalisib) | telomere length ([2]; THLE-3 cells) | TERT expression ([3]; THLE-3 cells) | TERT expression reduced by ([4]; 300 μmol/L H2O2-treated HCC cells plus idelalisib, compared to HCC cells treated with H2O2 only) | ROS-mediated increase in the TERT expression ([4]; H2O2-treated cells) | TERT expression ([4]; two HCC cell lines, no H2O2) | pIC50 (THLE-3 cells; Homo sapiens, THLE3, MTS assay, treated for 96 hours) | latency time till tumor development ([1]; nude mouse injected with 1×10^5 HCC cells treated with H2O2) | telomere length [2, 5] | TERT expression level ([3]; THLE-3 cells after H2O2 treatment) | TERT expression increased by ([4]; HCC cells treated with 300 μmol/L H2O2, compared to control HCC cells not exposed to H2O2) | cells that did not survive (THLE-3 cells; [5]) |
| --- | --- | --- | --- | --- | --- | --- | --- | --- | --- | --- | --- | --- |
| CC[C@H](Nc1ncnc2nc[nH]c12)c1nc2cccc(F)c2c(=O)n1-c1ccccc1 [idelalisib, 5-fluoro-3-phenyl-2-[(1S)-1-(7H-purin-6-ylamino)propyl]-4(3H)-quinazolinone] | > 70 days | not reduced | not reduced | 65%-70% | almost completely inhibited | reduced | < 3.70 | – | – | – | – | – |
| OO [H2O2, hydrogen peroxide] | – | – | – | – | – | – | – | 28 days | reduction | no change | 40%-45% | 85% |
